Results taken from PubChem BioAssay (NCI).
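96-well plates; 48 h exposure; 5 concentrations. Endpoints by linear interpolation between flanking doses. Not reached: highest tested concentration assigned. TGI: concentration producing complete growth inhibition.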

Key:
Test in all cases: NCI-60 cell line screen, 48 h
786-0 renal = test system: 786-0 renal
A549 NSCLC = test system: A549 NSCLC
ACHN renal = test system: ACHN renal
BT-549 breast = test system: BT-549 breast
CAKI-1 renal = test system: CAKI-1 renal
COLO 205 colon = test system: COLO 205 colon
DU-145 prostate = test system: DU-145 prostate
HCC-2998 colon = test system: HCC-2998 colon
HCT-116 colon = test system: HCT-116 colon
HCT-15 colon = test system: HCT-15 colon
HL-60(TB) leukemia = test system: HL-60(TB) leukemia
HOP-62 NSCLC = test system: HOP-62 NSCLC
HOP-92 NSCLC = test system: HOP-92 NSCLC
HS 578T breast = test system: HS 578T breast
HT29 colon = test system: HT29 colon
IGROV1 ovarian = test system: IGROV1 ovarian
KM12 colon = test system: KM12 colon
LOX IMVI melanoma = test system: LOX IMVI melanoma
M14 melanoma = test system: M14 melanoma
MALME-3M melanoma = test system: MALME-3M melanoma
MCF7 breast = test system: MCF7 breast
MDA-MB-231 breast = test system: MDA-MB-231 breast
MDA-MB-435 = test system: MDA-MB-435
MDA-N = test system: MDA-N
MOLT-4 leukemia = test system: MOLT-4 leukemia
NCI-H226 lung = test system: NCI-H226 lung
NCI-H23 lung = test system: NCI-H23 lung
NCI-H460 lung = test system: NCI-H460 lung
NCI-H522 lung = test system: NCI-H522 lung
NCI/ADR-RES ovarian = test system: NCI/ADR-RES ovarian
OVCAR-3 ovarian = test system: OVCAR-3 ovarian
OVCAR-4 ovarian = test system: OVCAR-4 ovarian
OVCAR-5 ovarian = test system: OVCAR-5 ovarian
OVCAR-8 ovarian = test system: OVCAR-8 ovarian
PC-3 prostate = test system: PC-3 prostate
RPMI-8226 leukemia = test system: RPMI-8226 leukemia
SF-268 CNS = test system: SF-268 CNS
SF-295 CNS = test system: SF-295 CNS
SF-539 CNS = test system: SF-539 CNS
SK-MEL-2 melanoma = test system: SK-MEL-2 melanoma
SK-MEL-28 melanoma = test system: SK-MEL-28 melanoma
SK-MEL-5 melanoma = test system: SK-MEL-5 melanoma
SK-OV-3 ovarian = test system: SK-OV-3 ovarian
SN12C renal = test system: SN12C renal
SNB-19 CNS = test system: SNB-19 CNS
SNB-75 CNS = test system: SNB-75 CNS
SR leukemia = test system: SR leukemia
SW-620 colon = test system: SW-620 colon
T-47D breast = test system: T-47D breast
TK-10 renal = test system: TK-10 renal
U251 CNS = test system: U251 CNS
UACC-257 melanoma = test system: UACC-257 melanoma
UACC-62 melanoma = test system: UACC-62 melanoma
UO-31 renal = test system: UO-31 renal
A498 renal = test system: A498 renal
EKVX NSCLC = test system: EKVX NSCLC
RXF 393 renal = test system: RXF 393 renal

Measured: TGI

Nn1c(CCCCCCCCc2nnc(-c3c(O)ccc4ccccc34)n2N)nnc1-c1c(O)ccc2ccccc12
not listed: A498 renal | EKVX NSCLC | RXF 393 renal
> 100 µM: all other assays above

C=C1C(C(=O)OC)[C@H]1C(=O)OC (stereo not given in full)
not listed: MALME-3M melanoma
> 100 µM: all other assays above
